Data as given in paper PMC8658773, “Two New Isoprenoid Flavonoids from Sophora flavescens with Antioxidant and Cytotoxic Activities” (Molecules, 2021).
Where two headings read alike, the source gives them in different places. Blank lines part the entries; values can stand above or below the molecule they belong to.

Experiments:
[1] = ABTS free radical scavenging assay; format: biochemical; settings: for ABTS radical scavenging activity (inhibition rate): 20 μg/mL, SD in brackets
Experimental: The third assay, the ABTS free radical scavenging screen was performed by previous experiments with slight changes. First, we needed to prepare for the ABTS^+ solution. […] Then, they were mixed with equal volume at room temperature and kept away from light for 12 h, the mixed solution was diluted with ethanol until the absorbance of […]. Thus, the ABTS^+ solution was obtained. Furthermore, the compounds (100 µL, 40 µg/mL) with ABTS^+ solution (100 µL) were also added to the 96-well plates (as the value of Ai) and were interacted for 10 min at room temperature in the dark, then the absorbance at 734 nm was measured. VC was used as the positive control. Antioxidant capacity was calculated according to the first formula (the value of 100 µL ethanol with 100 µL ABTS^+ solution as A0, the value of 100 µL compounds with 100 µL ethanol as Aj). All experiments were carried out in triplicate.

[2] = PTIO free radical scavenging assay; format: biochemical; settings: 8 μg/mL; SD in brackets
Experimental: PTIO free radical scavenging was also performed following previous reports with some modification. VC was used as the positive control. PTIO radicals were dissolved with phosphate buffer (PBS) (pH 7.4, 50 mM) with a concentration of 0.05 mg/mL. Then, the samples (40 µL, 40 µg/mL) and PTIO solution (160 µL) were added into 96-well plates (as the value of Ai). After being thoroughly mixed, the reaction solution was incubated at 37 °C in a water-bath for 2 h. Then, the absorbance was measured at 557 nm. PTIO free radical scavenging was calculated using the above equation. (40 µL PBS with 160 µL PTIO as A0, 40 µL compounds with 160 µL PBS as Aj).

[3] = DPPH free radical scavenging assay; format: biochemical; settings: for DPPH radical scavenging activity (inhibition rate): 20 μg/mL, SD in brackets
Experimental: The in vitro antioxidant activity tests were conducted according to previous reports. Among them, the DPPH free radical scavenging assay was slightly modified. Briefly, the DPPH material was precisely weighed, ethanol solution was added to obtain a concentration of 0.1 mmol/L (to use immediately, or store in the dark). Then, the compounds (100 µL, 40 µg/mL) with DPPH solution (100 µL) (Ai) were added to 96-well plates and incubated for 30 min at room temperature. Subsequently, the activity was measured using the Thermo Scientific Varioskan LUX ([…], VL0L00D0, USA), with an absorbance of 570 nm. Vitamin C (VC) (40 µg/mL) was used as the positive control.

[4] = test system: HepG2 cells; assay: Cytotoxic activity (MTS assay), HepG2; format: cell-based, human; settings: for inhibition at 10 µM: HepG2, 24 h, read-out: HepG2 inhibition rate; for IC50: 24 h, MTS
Experimental: (§1) The tests were conducted according to our previous reports. The cells were grown in DMEM medium supplemented with 10% FBS, penicillin (100 U/mL), and streptomycin (100 μg/mL) in a 37 °C and 5% CO2 incubator. The cytotoxic activities were performed by the MTS assay. Briefly, 28 compounds were dissolved with DMSO. The cells were seeded at 1 × 10^5 cells/mL in 96-well plates (100 µL/well) and cultured for 18 h when the cells filled the bottom of the wells. Then the supernatant was discard, the compounds (10 μM, 100 µL/well) were added to the culture and incubated for 24 h before cell viability measurement. 10 µL MTS reagent (0.5 mg/mL) were added and further incubated for 4 h. Finally, absorbance was read using an automatic micro-plate reader (Molecular Devices, USA) at 490 nm to test the cell viabilities, and the results were presented as the percent of non-treated control for each concentration. Irinotecan was used as the positive control. All measurements were repeated in triplicate. Data were expressed as the mean ± SD.

[5] = test system: MCF7 cells; assay: Cytotoxic activity (MTS assay), MCF7; format: cell-based, human; settings: for inhibition at 10 µM / IC50: Homo sapiens, MCF7, 24 h; for inhibition at 10 µM: read-out: MCF7 inhibition rate; for IC50: MTS
Experimental: as §1

[6] = test system: LO2 cells; assay: Cytotoxic activity (MTS assay), LO2 normal cells; format: cell-based, human; settings: for inhibition at 10 µM: Homo sapiens, L02, read-out: LO2 cell inhibitory activity (Table S7)
[7] = test system: HepG2 cells; assay: Cytotoxic activity (MTS assay), HepG2; format: cell-based, human; settings: SD in brackets; for inhibition at 10 µM: Homo sapiens, HepG2, 10 µM, read-out: HepG2 cell inhibitory activity (Table S4)
[8] = test system: A549 cells; assay: Cytotoxic activity (MTS assay), A549; format: cell-based, human; settings: SD in brackets; for inhibition at 10 µM: Homo sapiens, A549, read-out: A549 cell inhibitory activity (Table S5)
[9] = test system: MCF7 cells; assay: Cytotoxic activity (MTS assay), MCF7; format: cell-based, human; settings: SD in brackets; for inhibition at 10 µM: Homo sapiens, MCF7, read-out: MCF-7 cell inhibitory activity (Table S6)
[10] = test system: A549 cells; assay: Cytotoxic activity (MTS assay), A549; format: cell-based, human; settings: for IC50: MTS
Experimental: as §1

[11] = test system: HepG2, A549 and MCF7 cells; assay: Cytotoxic activity (MTS assay), stated jointly for three cancer cell lines; format: cell-based; settings: Homo sapiens, read-out: IC50 values against the three cancer cell lines (range)
Experimental: as §1

Molecule: C=C(C)C(CC=C(C)C)Cc1cc(OC)ccc1C1Oc2cc(O)cc(CC(CC=C(C)C)C(=C)C)c2C(=O)C1O (stereo not shown) [Compound 1, 7-hydroxy-5,1-bis (5-methyl-2-isopropyl-hexene) -flavanonol]
PTIO radical scavenging activity (inhibition rate) [2]: 37.3% (3.4%) | DPPH radical scavenging activity (inhibition rate) [3]: 40.0% (4.9%) | inhibition at 10 µM ([4]; Homo sapiens): 84% | IC50 ([4]; Homo sapiens, HepG2): 9.6 µM | inhibition at 10 µM ([10]; Homo sapiens, A549, 10 μM, 24 h, read-out: A549 inhibition rate): 58% | IC50 ([10]; Homo sapiens, A549, 24 h): 10.6 µM | inhibition at 10 µM [5]: 85% | IC50 [5]: 7.5 µM | inhibition at 10 µM ([6]; SD in brackets): 29.4% | Cytotoxic effect on LO2 human normal cells (in words) ([6]; compared with cancer cells): little effect | IC50 [11]: 7.5 to 10.6 µM | inhibition at 10 µM [7]: 84.1% | inhibition at 10 µM [8]: 58% | inhibition at 10 µM [9]: 85%

Molecule: CCc1c2c(nc3ccc(OC(=O)N4CCC(N5CCCCC5)CC4)cc13)-c1cc3c(c(=O)n1C2)COC(=O)[C@]3(O)CC [irinotecan, reference compound]
IC50 ([4]; Homo sapiens, HepG2): 0.6 µM | IC50 ([10]; Homo sapiens, A549, 24 h): 1 µM | IC50 [5]: 0.9 µM

Molecule: kushenol A [Compound 13]
ABTS radical scavenging activity (inhibition rate) [1]: 81.5% (1.9%) | PTIO radical scavenging activity (inhibition rate) [2]: 35.6% (1.0%) | DPPH radical scavenging activity (inhibition rate) [3]: 25.6% (2.4%) | IC50 [4]: 6.85 µM | Inhibition of A549 cells (in words) [10]: could hardly inhibit | Inhibition of MCF7 cells (in words) [5]: could hardly inhibit | LO2 cell inhibitory activity (Table S7) ([6]; 10 μg/mL, SD in brackets): 26.8% (2.7%) | HepG2 cell inhibitory activity (Table S4) ([7]; 10 μg/mL): 97.5% (0.1%) | A549 cell inhibitory activity (Table S5) ([8]; 10 μg/mL): 17.6% (0.6%) | MCF-7 cell inhibitory activity (Table S6) ([9]; 10 μg/mL): 11.5% (2.1%)

Molecule: O=C(O)c1ccc(O)cc1 [Compound 28, 4-hydroxybenzoic acid]
ABTS radical scavenging activity (inhibition rate) [1]: 2.2% (0.9%) | PTIO radical scavenging activity (inhibition rate) [2]: 37.3% (2.3%) | DPPH radical scavenging activity (inhibition rate) [3]: 20.4% (8.6%) | inhibition at 10 µM ([6]; SD in brackets): 2.8% | inhibition at 10 µM [7]: 10.2% | inhibition at 10 µM [8]: 15.5% | inhibition at 10 µM [9]: 1.1%

Now from value to molecule, other results behind:

ABTS radical scavenging IC50 [1]: 1.81 µg/mL
Molecule: C=C(C)C(CC=C(C)C)Cc1c(O)c(OC)c2c(c1O)C(=O)C(O)C(c1ccc3c(c1)OCO3)O2 (stereo not shown) [Compound 2, 5,7-dihydroxy-8-methoxy-6-(5-methyl-2-iso-hexenyl)-3′,4′-methylene dioxy-flavanonol]
PTIO radical scavenging activity (inhibition rate) [2]: 41.0% (2.6%) | DPPH radical scavenging activity (inhibition rate) [3]: 42.3% (1.5%) | inhibition at 10 µM ([4]; Homo sapiens): 19.9% | inhibition at 10 µM [5]: 10.3% | inhibition at 10 µM ([6]; SD in brackets): 27.9% | inhibition at 10 µM [7]: 19.9% | inhibition at 10 µM [8]: 17.2% | inhibition at 10 µM [9]: 10.3%

ABTS radical scavenging IC50 [1]: 2.05 µg/mL
Molecule: C=C(C)[C@H](CCC(C)(C)O)Cc1c(O)cc(OC)c2c1O[C@H](c1ccc(O)cc1O)[C@@H](O)C2=O [Compound 3, kushenol H]
DPPH radical scavenging activity (inhibition rate) [3]: 53.5% (0.4%) | inhibition at 10 µM ([4]; Homo sapiens): 1.9% | inhibition at 10 µM [5]: 4.5% | inhibition at 10 µM ([6]; SD in brackets): 15.5% | inhibition at 10 µM [7]: 1.9% | inhibition at 10 µM [8]: 11.3% | inhibition at 10 µM [9]: -4.5%

ABTS radical scavenging IC50 [1]: 3.72 µg/mL
Molecule: C=C(C)C(CCC(C)(C)O)Cc1c(O)cc(OC)c2c1OC(c1ccc(O)cc1O)C(O)C2=O (stereo not shown) [Compound 4, kushenol L]
PTIO radical scavenging activity (inhibition rate) [2]: 39.4% (1.3%) | DPPH radical scavenging activity (inhibition rate) [3]: 37.1% (3.0%) | inhibition at 10 µM ([4]; Homo sapiens): 4.6% | inhibition at 10 µM [5]: 0.7% | inhibition at 10 µM ([6]; SD in brackets): 3.2% | inhibition at 10 µM [7]: 4.6% | inhibition at 10 µM [8]: 8.2% | inhibition at 10 µM [9]: -0.7%

DPPH radical scavenging IC50 [3]: 0.80 µg/mL
Molecule: O=c1ccc2ccc(O)c(O)c2o1 [Compound 25, 7,8-dihydroxycoumarin]
ABTS radical scavenging activity (inhibition rate) [1]: 97.8% (1.8%) | PTIO radical scavenging activity (inhibition rate) [2]: 46.3% (4.8%) | inhibition at 10 µM ([6]; SD in brackets): 8.6% | inhibition at 10 µM [7]: 8.5% | inhibition at 10 µM [8]: 32.4% | inhibition at 10 µM [9]: 4.8%
